pIC50: −log10 of the molar value.
Experiments:
adenosine A3 receptor = adenosine A3 receptor (Homo sapiens (Human), UniProt P0DMS8); assay: Radioligand binding competition assay, adenosine A3 receptor (CHO-K1-A3 cell membranes); conditions: 300 nM compound
Method: (§1) Binding of selected compounds to the adenosine A1, A2A, A2B, and A3 receptors was tested using a binding competition assay.
(§2) The general protocol for the radioligand binding competition assay was as follows. Competition binding was performed in duplicate in the wells of a 96 well plate (Master Block, Greiner, 786201) containing binding buffer (optimized for each receptor), membrane extracts (amount of protein/well optimized for each receptor), radiotracer (final concentration optimized for each receptor), and test compound. Nonspecific binding was determined by co-incubation with 200-fold excess of cold competitor. The samples were incubated in a final volume of 0.1 mL at 25° C. for 60 minutes and then filtered over filter plates. Filters were washed six times with 0.5 mL of ice-cold washing buffer (optimized for each receptor) and 50 μL of Microscint 20 (Packard) were added on each filter. The filter plates were sealed, incubated 15 min on an orbital shaker and scintillation counted with a TopCount for 30 sec/filter.
For the adenosine A3 radioligand binding competition assay, the following reagents were used:
(§3) CHO-K1-A3 cell membranes, 1.5 μg/well; a binding buffer comprising HEPES 25 mM pH 7.4, MgCl2 5 mM, CaCl2 1 mM, 0.5% BSA; a wash buffer comprising HEPES 25 mM pH 7.4, MgCl2 5 mM, CaCl2 1 mM; a Unifilter GF/C—treated for 2 h with 0.5% BS; and 0.4 nM of ^125I-AB-MECA as the tracer. The results of the binding assay are shown in Table B1-1 and are shown as percent residual binding at a given concentration. Percent of residual binding means binding of a compound in the presence of competitor normalized to the amount of binding in the absence of competitor. […] For example, compound 1 strongly bound to A2A (30% residual binding at a concentration of 100 nM), A1 (−3% residual binding at 300 nM) and A2B, (−9% residual binding at 300 nM) but weakly bound to A3 (96% residual binding at 300 nM).

adenosine A1 receptor = adenosine A1 receptor (Homo sapiens (Human), UniProt P30542); assay: Radioligand binding competition assay, adenosine A1 receptor (CHO-K1-A1 cell membranes); conditions: 300 nM compound
adenosine A1 receptor, sequence (P30542 whole entry): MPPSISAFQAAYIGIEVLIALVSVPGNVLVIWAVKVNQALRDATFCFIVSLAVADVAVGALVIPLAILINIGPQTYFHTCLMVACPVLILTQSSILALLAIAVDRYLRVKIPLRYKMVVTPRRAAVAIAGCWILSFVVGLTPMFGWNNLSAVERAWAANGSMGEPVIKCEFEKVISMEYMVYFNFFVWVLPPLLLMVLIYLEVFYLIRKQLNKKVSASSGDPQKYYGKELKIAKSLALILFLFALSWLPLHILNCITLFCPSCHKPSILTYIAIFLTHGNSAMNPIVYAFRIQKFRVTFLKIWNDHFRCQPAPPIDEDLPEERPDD
Method: as §1, §2
For the adenosine A1 radioligand binding competition assay, a similar procedure was used except that the following reagents were used: CHO-K1-A1 cell membranes; binding buffer comprising HEPES 25 mM pH 7.4, MgCl2 5 mM, CaCl2 1 mM, NaCl 100 mM, saponin 10 µg/mL; wash buffer comprising HEPES 25 mM pH 7.4, MgCl2 5 mM, CaCl2 1 mM, NaCl 100 mM; Unifilter GF/B—treated for 2 h with 0.5% PEI was the filter; and 1.6 nM of ^3H-DPCPX was the tracer.
as §3

adenosine A2A receptor [1] = molecular target: T1, adenosine A2A receptor (Homo sapiens (Human), UniProt P29274); assay: cAMP assay in HEK-293 cells expressing human recombinant adenosine A2A receptor; format: cell-based; conditions: HEK293; 100 nM compound; read-out: A2a cAMP % inh @ 100 nM
T1 sequence (P29274 whole entry): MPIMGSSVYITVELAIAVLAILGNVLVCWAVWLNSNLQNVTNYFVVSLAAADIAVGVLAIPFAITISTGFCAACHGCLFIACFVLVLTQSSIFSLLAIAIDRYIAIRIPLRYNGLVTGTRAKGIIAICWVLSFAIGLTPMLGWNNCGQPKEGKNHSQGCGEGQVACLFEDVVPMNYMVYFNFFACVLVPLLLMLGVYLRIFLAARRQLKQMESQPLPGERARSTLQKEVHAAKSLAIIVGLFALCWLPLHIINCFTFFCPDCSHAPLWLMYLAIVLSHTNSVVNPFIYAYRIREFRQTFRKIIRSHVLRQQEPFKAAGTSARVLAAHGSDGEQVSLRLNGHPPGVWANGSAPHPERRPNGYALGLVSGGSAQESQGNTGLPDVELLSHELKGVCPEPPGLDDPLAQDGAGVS
Method: The functional activity of compounds was tested using one of the two assays to detect the present of cAMP. Activation of G-protein coupled receptors (such as A2A) results in activation of adenylcyclase which converts ATP into cAMP which is used as a downstream signaling molecule. Therefore, molecules which act as GPCR (or specifically A2A receptor) antagonists cause a decrease in intracellular cAMP concentration.
Both assays used HEK-293 cells expressing human recombinant adenosine A2A receptor were grown prior to the test in media without antibiotic. Assay 1: The cells were detached by gentle flushing with PBS-EDTA (5 mM EDTA), recovered by centrifugation and suspended in assay buffer (KRH: 5 mM KCl, 1.25 mM MgSO4, 124 mM NaCl, 25 mM HEPES, 13.3 mM Glucose, 1.25 mM KH2PO4, 1.45 mM CaCl2, 0.5 g/L BSA, supplemented with Rolipram).
12 μL of cells were mixed with 6 μL of the test compound at increasing concentrations and then incubated for 10 min. Thereafter 6 μL of the reference agonist was added at a final concentration corresponding to the historical EC80. The plates were then incubated for 30 min at room temperature. After addition of the lysis buffer and 1 hour incubation, cAMP concentrations were estimated, according to the manufacturer specification, with the HTRF® kit.
Assay 2: 100 nL of test articles at 100× of final concentration were transferred to assay plate by Echo. Cells were washed twice with 5 mL of PBS […]. After aspirating the PBS and adding 1.5 mL versine, cells were incubated at 37° C. for 2-5 min. After centrifugation, 4 mL of medium was added and adjusted cell density to 5,000 cells/well with stimulation buffer. 10 μL of cells were aliquoted to the assay plate, centrifuged at 1000 rpm for 1 minute, and incubated for 60 minutes at room temperature. 5 μL 4× Eu-cAMP tracer solution and 5 μL 4× Ulight™-anti-cAMP solution were added to assay plate, followed by centrifugation and 60-minute incubation at room temperature. Plates were read on EnVision.

adenosine A2A receptor [2] = molecular target: T1, adenosine A2A receptor; assay: Radioligand binding competition assay, adenosine A2A receptor
Method: as §1, §2
For the adenosine A2A receptor radioligand binding assay, the following modifications were made to the general protocol. GF/C filters (Perkin Elmer, 6005174), presoaked in 0.01% Brij for 2 h at room temperature were used. Filters were washed six times with 0.5 mL of ice-cold washing buffer (50 mM Tris pH 7.4) and 50 μL of Microscint 20 (Packard) was added in each well. The plates were then incubated for 15 min on an orbital shaker and then counted with a TopCount™ for 1 min/well.
Another radioligand binding assay was used to evaluate the binding affinity for the adenosine A2A receptor assay was performed in duplicate in the wells of a 384 plate. Assay buffer contained DPBS 500 mM, MgCl2 0.1 mM, and 1% DMSO. Membrane-bead suspension was prepared by mixing 25.98 μL of human adenosine A2A membrane preparation (Perkin Elmer, RBHA2AM400UA) at 33.4 pg/mL, 28 μL of ADA at 20 pg/mL, and 932 μL of SPA beads at 3.33 mg/mL) and incubated the mixture for 20 min at room temperature. Mixed 20 μL of radiotracer (^3H-SCH 58261) at 15 nM to each well containing test articles at various concentrations and centrifuge the plate at 1000 rpm for 1 minute. Added 30 μL of the membrane-bead suspension to each well. Sealed the plates and incubated for 1 hr at room temperature with vigorous mixing on a plate mixer. Plates were read on Microbeta^2 (Perkin Elmer, 2450-0010).
as §3

adenosine A2B receptor = adenosine A2B receptor (Homo sapiens (Human), UniProt P29275); assay: Radioligand binding competition assay, adenosine A2B receptor (HEK-293-A2b cell membranes); conditions: 300 nM compound
adenosine A2B receptor, sequence (P29275 whole entry): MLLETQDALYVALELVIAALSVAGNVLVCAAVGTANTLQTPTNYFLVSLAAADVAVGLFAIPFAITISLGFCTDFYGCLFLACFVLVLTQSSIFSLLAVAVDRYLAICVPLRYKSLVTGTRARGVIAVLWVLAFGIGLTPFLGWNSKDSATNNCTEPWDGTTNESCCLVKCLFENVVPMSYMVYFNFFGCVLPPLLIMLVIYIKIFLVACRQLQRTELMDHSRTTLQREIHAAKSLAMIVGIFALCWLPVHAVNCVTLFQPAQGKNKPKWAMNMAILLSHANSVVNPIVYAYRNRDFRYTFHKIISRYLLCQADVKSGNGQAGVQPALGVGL
Method: as §1, §2
Similarly, the following reagents were used for the adenosine A2B radioligand binding competition assay: HEK-293-A2b cell membranes, 20 μg/well, preincubated 30 min at RT with […] Adenosine Deaminase; a binding buffer comprising HEPES 10 mM pH7.4, EDTA 1 mM, 0.5% BSA; a wash buffer comprising HEPES 10 mM pH7.4, EDTA 1 mM; a Unifilter GF/C—treated for 2 h with 0.5% PEI; and 10 nM ^3H-DPCPX as the tracer.
as §3

adenosine A3 receptor, sequence (P0DMS8 whole entry): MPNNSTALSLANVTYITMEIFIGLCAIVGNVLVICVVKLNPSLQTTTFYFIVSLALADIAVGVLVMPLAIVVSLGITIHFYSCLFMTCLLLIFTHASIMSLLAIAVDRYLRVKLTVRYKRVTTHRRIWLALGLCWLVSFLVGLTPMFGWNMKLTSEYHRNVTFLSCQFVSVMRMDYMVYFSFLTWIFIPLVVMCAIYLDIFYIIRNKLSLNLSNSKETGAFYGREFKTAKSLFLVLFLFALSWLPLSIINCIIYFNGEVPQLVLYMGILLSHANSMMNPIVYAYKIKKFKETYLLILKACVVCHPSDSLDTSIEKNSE

Radioligand binding competition assay % residual binding @ 300 nM (A3) (adenosine A3 receptor): 87% | Radioligand binding competition assay % residual binding @ 300 nM (A1) (adenosine A1 receptor): 13% | inhibition at 0.1 µM (adenosine A2A receptor [1]): 94% | pIC50 (adenosine A2A receptor [2]): 7.48 | A2A radioligand binding competition assay % residual binding @ 3000 nM (adenosine A2A receptor [2]; 3000 nM compound): 5/ND/ND/ND % | Radioligand binding competition assay % residual binding @ 300 nM (A2b) (adenosine A2B receptor): 0%
SMILES: O=c1cc[nH]c2nc(-c3ccco3)c(-c3ccc4ncccc4c3)cc12 [Compound No. 1.14, 7-(furan-2-yl)-6-(quinolin-6-yl)-1,8-naphthyridin-4(1H)-one]

Reference: patent US10793561B2, “1,8-naphthyridinone compounds and uses thereof” (NUVATION BIO INC., priority 2017, dated 2020)
